Converted amounts (≈) assume the structure as drawn. Where two headings read alike, the source gives them in different places.
Legend:
[1] = tested on: Plasmodium falciparum (D6 strain); test: In vitro anti-malarial activity, [3H]-ethanolamine incorporation; format: cell-based; conditions: for IC50: Plasmodium falciparum; for anti-malarial potency relative to 2,3,4,5,6-pentahydroxyxanthone: in words
Description: The D6 strain of P. falciparum was cultured in Group A^+ human erythrocytes and suspended at a 3.3% hematocrit in RPMI-1640 (Gibco, Grand Island, N.Y.) (containing 4 g/L glucose, 50 mg/L gentamicin and 10% group A^+ human serum), buffered with 25 mM HEPES and 25 mM NaHCO3 (Larrey, 1989). Cultures were maintained at 37° C. in a gas mixture of 5% oxygen, 5% CO2, and 90% nitrogen.
The in vitro anti-malarial activities of 2,3,4,5,6-pentahydroxyxanthone and other formula X1 compounds were measured by the [^3 H]-ethanolamine incorporation method as described in Elabbadi et al., 1992, with minor modifications. [^3 H]-ethanolamine was obtained from American Radiolabeled Chemicals, Inc., St. Louis, Mo. Experiments were conducted in 96 well plates in a total volume of 200 μl at a final red blood cell concentration of 3.3% (v/v). An initial parasitemia of 0.2 to 0.5% was attained by addition of normal uninfected red cells. Radiolabeled ethanolamine was added after 48 hours of incubation and the experiment was terminated after 72 hours by collecting the cells onto glass fiber filters with an automated multiwell harvester.
Stock solutions of the various formula X1 compounds were dissolved in DMSO at a concentration of 1 mM and diluted in complete medium (including 10% human serum) to provide 10× stock concentrations in the range of 1 to 10,000 nM. The concentration of the formula X1 compound giving 50% inhibition of label incorporation (IC50) relative to control (i.e., drug-free) conditions was calculated from the dose-response curve.

Leishmania donovani [2] = test: In vitro anti-leishmania activity, radiolabeled thymidine uptake assay; format: cell-based; conditions: for IC50: Leishmania donovani
Description: Briefly, promastigotes were cultivated at 25° C. in Schneiders medium supplemented with 20% inactivated fetal calf serum and 100 μg/mL of gentamicin. Cells were maintained in log phase by seeding at 1×10^6 /mL with subculturing when cultured densities approached 4×10^7 /mL before reaching their maximal density. For the assay, early log phase promastigotes were counted on a hemacytometer and resuspended at a concentration of 1-2×10^6 cell/mL in assay media (Schneiders medium plus 10% fetal bovine serum). Ten-fold serial dilutions of each test compound were prepared as described above and added to 180 μL of the parasite suspension. After incubation for 24 hours at 25° C., methyl-^3 H-thymidine was added to each sample for a final concentration of 1-2 μCi per well. Each sample was then incubated for an additional 18 hours prior to harvesting. After this incubation time, each sample was aspirated onto a filter mat, washed thoroughly with deionized water, dried and then counted in a scintillation counter with scintillation cocktail.

Leishmania donovani [3] = conditions: reported by Grogl et al. (1992); cited from earlier work
[4] = tested on: Candida albicans (clinical isolate); test: Anti-Candida activity, minimum inhibitory concentration by visual inspection; format: cell-based; conditions: 15-18 hour incubation, 35° C., read-out: MIC against Candida albicans
Description: The minimum inhibitory concentration (MIC) of formula X1 compounds against a clinical isolate of Candida albicans was determined using the following method. […] The determination of this concentration is made by visual inspection; there is no visible growth in a tube containing the MIC of the formula X1 compound whereas visible growth is present in tubes containing sub-MIC concentrations of the compound.
Candida albicans was grown to midlog-phase in Luria-Bertani broth (10 grams Bacto-tryptone, 5 grams Bacto-yeast extract and 10 grams NaCl per liter) and then inoculated into sterile test tubes containing LB broth to an initial density of 10^3 /ml. The formula X1 compound to be tested is dissolved in dimethylsulfoxide (DMSO) at a concentration of 10 mM and added to each tube at serial dilutions (1 μM, 10 μM, 25 μM, 50 μM, 100 μM and 0 μM). The tubes are incubated at 35° C. for 15-18 hours and then visually inspected.

[5] = Table 1, D6 strain, 72 h, read-out: IC50, μM vs. Plasmodium
[6] = D6, 72 h, read-out: IC50, μM vs. Plasmodium
[7] = Table 2, read-out: IC50, mg/ml vs. Leishmania
[8] = promastigotes, read-out: anti-leishmanial activity IC50
[9] = D6 strain, 72 h, read-out: anti-malarial activity IC50

Row | SMILES | IC50 [1, 5] | IC50 (Leishmania donovani [2]; [7]) | IC50 [1, 9] | further results
1 | O=c1c2ccc(O)c(O)c2oc2c(O)c(O)ccc12 [3,4,5,6-Tetrahdroxyxanthone, 3,4,5,6-Tetrahdroxy-xanthone] | 10 µM | – | – | –
2 | O=c1c2ccccc2oc2cc(O)cc(O)c12 [1,3-dihydroxyxanthone, 1,3-dihydroxyxanthone] | > 100 µM | – | – | –
3 | COc1c(O)cc2oc3cc(O)c(CC=C(C)C)c(O)c3c(=O)c2c1CC=C(C)C [Mangostin, reference compound] | – | 0.00041 mg/mL | – | IC50 [1, 6]: 5 µM; IC50 (Leishmania donovani [2]; read-out: anti-leishmanial activity IC50): 0.00041 mg/mL; IC50 (Leishmania donovani [2]; [8]): 1000 nM
4 | COc1cc2c(=O)c3ccc(OC)c(OC)c3oc2c(OC)c1OC [2,3,4,5,6-pentamethoxyxanthone] | > 100 µM | – | > 100 µM | anti-malarial potency relative to 2,3,4,5,6-pentahydroxyxanthone [1]: essentially eliminated the anti-malarial activity
5 | O=c1c2cc(O)c(O)c(O)c2oc2cc(O)cc(O)c12 [1,3,5,6,7-pentahydroxyxanthone, 1,3,5,6,7-pentahydroxy-xanthone] | 1 µM | – | – | –
6 | O=c1c2cc(O)c(O)cc2oc2cc(O)c([C@@H]3O[C@H](CO)[C@@H](O)[C@H](O)[C@H]3O)c(O)c12 [Mangiferin, reference compound] | 50 µM | > 0.05 mg/mL | – | –
7 | CCN(CC)CCCC(C)Nc1ccnc2cc(Cl)ccc12 (stereo not drawn) [Chloroquine, reference compound] | – | – | – | IC50 ([1]; D6, 72 h, read-out: anti-malarial activity IC50): ~0.02 µM
8 | O=c1c2ccccc2oc2ccccc12 [Xanthone] | – | – | – | IC50 [1, 6]: 10 µM
9 | O.O.O.O.O.O.O.O.O.O=C([O-])[C@@H]1[O][Sb](=[O])([O][Sb]2(=[O])[O][C@H]([C@H](O)CO)[C@H](O)[C@H](C(=O)[O-])[O]2)[O][C@H]([C@H](O)CO)[C@@H]1O.[Na+].[Na+].[Na+] (stereo partly drawn) [Pentostam] | – | – | – | IC50 values of commonly used anti-leishmanial drugs (Leishmania donovani [3]): 100 to 2000 µg/mL
10 | CC(=O)Oc1cc2c(=O)c3ccc(OC(C)=O)c(OC(C)=O)c3oc2c(OC(C)=O)c1OC(C)=O [2,3,4,5,6-pentaacetoxyxanthone] | 0.075 µM | – | ~0.075 µM | anti-malarial potency relative to 2,3,4,5,6-pentahydroxyxanthone [1]: several times more potent
11 | O=c1c2cc(O)c(O)c(O)c2oc2cc(O)c(O)c(O)c12 [1,2,3,5,6,7-Hexahydroxyxanthone, 1,2,3,5,6,7-Hexahydroxy-xanthone] | 25 to 50 µM | – | – | –
12 | O=c1c2ccc(O)c(O)c2oc2c(O)c(O)c(O)cc12 [2,3,4,5,6-pentahydroxyxanthone] | 0.4 to 0.5 µM | 0.0015 mg/mL | 0.4 to 0.5 µM | IC50 (Leishmania donovani [2]; [8]): ~5000 nM; anti-leishmanial activity IC50 (Leishmania donovani [2]; promastigotes, value in mg/ml): ~1 µg/mL; MIC [4]: ~37.5 µM (≈ 10.4 µg/mL)
13 | O=c1c2cc(O)c(O)c(O)c2oc2c(O)c(O)c(O)cc12 [2,3,4,5,6,7-hexahydroxyxanthone] | 0.075 µM | 0.0015 mg/mL | 0.075 µM | IC50 (Leishmania donovani [2]; [8]): ~5000 nM; MIC [4]: ~37.5 µM (≈ 11 µg/mL)

Reference: US5977077A, “Xanthone analogs for the treatment of infectious diseases” (Interlab Corporation, priority 1996, dated 1999)
